Experimental data published in patent US12269800B2, “Delivery of therapeutic alkaloid compounds” (priority 2021, dated 2025).
Where two headings read alike, the source gives them in different places.

Columns and labels:
[1] = Plasma Stability Assay of Example A3, mouse plasma; settings: % of prodrug compound remaining, 37° C.
[2] = Plasma Stability Assay of Example A3, human plasma; settings: % of prodrug compound remaining, 37° C.
[3] = 5 µM
Description: (§1) 50 uL aliquots of positive controls and test compounds spiked into rat or human plasma (n=2) were added to a pre-warmed plate (37° C.) and shaken at 50 rpm. At each respective time point, the reaction was stopped by adding 500 μL of acetonitrile containing internal standards (100 nM aprozolam, 200 nM caffeine, 100 nM tolbutamide). All samples were vortexed for 10 minutes, followed by centrifugation at 3,220 g for 30 minutes to precipitate proteins. 100 μL of the supernatant is transferred to a new plate. The supernatant will be diluted with ultrapure water according to the LC-MS signal response and peak shape.

[4] = 5 µM; remark: listed apart in the source
Description: as §1

Structure (SMILES) | Mouse Plasma Prodrug (%) ([1]; 0.0 min) | Mouse Plasma Prodrug (%) ([1]; 60 min) | Mouse Plasma Prodrug (%) ([1]; 120 min) | Mouse Plasma Prodrug (%) ([1]; 240 min) | Human Plasma Prodrug (%) ([2]; 0.0 min) | Rat Plasma Prodrug (%) ([3]; 0 min) | Rat Plasma Prodrug (%) ([3]; 10 min) | Rat Plasma Prodrug (%) ([3]; 30 min) | Rat Plasma Prodrug (%) ([3]; 60 min) | Rat Plasma Prodrug (%) ([3]; 120 min) | Rat Plasma Prodrug (%) ([3]; 240 min) | Human Plasma Prodrug (%) ([4]; 0 min) | Human Plasma Prodrug (%) ([4]; 10 min) | Human Plasma Prodrug (%) ([4]; 30 min) | Human Plasma Prodrug (%) ([4]; 60 min) | Human Plasma Prodrug (%) ([4]; 120 min) | Human Plasma Prodrug (%) ([4]; 240 min) | other results
COc1ccc([C@@]23CCC(OC(=O)C(c4ccccc4)c4ccccc4)=C[C@@H]2N(C)CC3)cc1OC [Compound 306, [(3aS,7aS)-3a-(3,4-dimethoxyphenyl)-1-methyl-3,4,5,7a-tetrahydro-2H-indol-6-yl] 2,2-diphenylacetate] | 100.0 | 1.6 | 0.4 | 0.1 | 100.0 |  |  |  |  |  |  |  |  |  |  |  |  | Mouse Plasma Prodrug (%) ([1]; 15 min): 6.2%
COc1ccc([C@@]23CCC(OC(=O)c4cccc(N(C)C)c4)=C[C@@H]2N(C)CC3)cc1OC [Compound 307, [(3aS,7aS)-3a-(3,4-dimethoxyphenyl)-1-methyl-3,4,5,7a-tetrahydro-2H-indol-6-yl] 3-(dimethylamino)benzoate] | 100.0 | 0.1 | 0.0 | 0.0 | 100.0 |  |  |  |  |  |  |  |  |  |  |  |  | Mouse Plasma Prodrug (%) ([1]; 30 min): 3.8%; Human Plasma Prodrug (%) ([2]; 60 min): 83.0%
COc1ccc([C@@]23CCC(OC(=O)C(C)(C)C)=C[C@@H]2N(C)CC3)cc1OC [Compound 309, [(3aS,7aS)-3a-(3,4-dimethoxyphenyl)-1-methyl-3,4,5,7a-tetrahydro-2H-indol-6-yl] 2,2-dimethylpropanoate] | 100.0 | 8.2 | 0.0 | 0.0 | 100.0 |  |  |  |  |  |  |  |  |  |  |  |  | Human Plasma Prodrug (%) ([2]; 120 min): 3.6%; Human Plasma Prodrug (%) ([2]; 240 min): 2.0%
COc1ccc([C@@]23CCC(OC(=O)C4CC4)=C[C@@H]2N(C)CC3)cc1OC [Compound 312, [(3aS,7aS)-3a-(3,4-dimethoxyphenyl)-1-methyl-3,4,5,7a-tetrahydro-2H-indol-6-yl] cyclopropanecarboxylate] | 100.0 | 2.2 | 2.8 | 0.8 | 100.0 |  |  |  |  |  |  |  |  |  |  |  |  | Mouse Plasma Prodrug (%) ([1]; 15 min): 3.5%; Mouse Plasma Prodrug (%) ([1]; 30 min): 1.6%; Human Plasma Prodrug (%) ([2]; 15 min): 8.1%; Human Plasma Prodrug (%) ([2]; 30 min): 6.2%
C/C=C(\C)C(=O)OC1=C[C@@H]2N(C)CC[C@]2(c2ccc(OC)c(OC)c2)CC1 [Compound 313, [(3aS,7aS)-3a-(3,4-dimethoxyphenyl)-1-methyl-3,4,5,7a-tetrahydro-2H-indol-6-yl](E)-2-methylbut-2-enoate] | 100.0 | 0.1 | 0.0 | 0.0 | 100.0 |  |  |  |  |  |  |  |  |  |  |  |  | Mouse Plasma Prodrug (%) ([1]; 15 min): 2.1%; Mouse Plasma Prodrug (%) ([1]; 30 min): 0.7%; Human Plasma Prodrug (%) ([2]; 120 min): 2.4%; Human Plasma Prodrug (%) ([2]; 240 min): 0.4%
C=C(C)C(=O)OC1=C[C@@H]2N(C)CC[C@]2(c2ccc(OC)c(OC)c2)CC1 [Compound 315, [(3aS,7aS)-3a-(3,4-dimethoxyphenyl)-1-methyl-3,4,5,7a-tetrahydro-2H-indol-6-yl]-2-methylprop-2-enoate] | 100.0 | 1.3 | 2.0 | 1.9 | 100.0 |  |  |  |  |  |  |  |  |  |  |  |  | Mouse Plasma Prodrug (%) ([1]; 15 min): 5.3%; Mouse Plasma Prodrug (%) ([1]; 30 min): 2.4%; Human Plasma Prodrug (%) ([2]; 30 min): 2.3%; Human Plasma Prodrug (%) ([2]; 60 min): 0.5%; Human Plasma Prodrug (%) ([2]; 120 min): 0.2%; Human Plasma Prodrug (%) ([2]; 240 min): 0.0%
COCCCCC(=O)OC1=C[C@@H]2N(C)CC[C@]2(c2ccc(OC)c(OC)c2)CC1 [Compound 404, (3aS,7aS)-3a-(3,4-dimethoxyphenyl)-1-methyl-2,3,3a,4,5,7a-hexahydro-1H-indol-6-yl 5-methoxypentanoate] |  |  |  |  |  | 100.0 | 0.3 | 0.3 | 0.3 | 0.3 | 0.2 | 100.0 | 22.9 | 11.5 | 7.6 | 3.8 | 1.6 | 
COCCOCCC(=O)OC1=C[C@@H]2N(C)CC[C@]2(c2ccc(OC)c(OC)c2)CC1 [Compound 405, (3aS,7aS)-3a-(3,4-dimethoxyphenyl)-1-methyl-2,3,3a,4,5,7a-hexahydro-1H-indol-6-yl 3-(2-methoxyethoxy)propanoate] |  |  |  |  |  | 100.0 | 0.1 | 0.0 | 0.1 | 0.0 | 0.0 | 100.0 | >99 | 95.0 | 87.0 | 65.7 | 46.7 | 
CCC(C)C(=O)OC1=C[C@@H]2N(C)CC[C@]2(c2ccc(OC)c(OC)c2)CC1 (stereo partly drawn) [Compound 425, (3aS,7aS)-3a-(3,4-dimethoxyphenyl)-1-methyl-2,3,3a,4,5,7a-hexahydro-1H-indol-6-yl 2-methylbutanoate] |  |  |  |  |  | 100.0 | 4.4 | 0.1 | 0.0 | 0.0 | 0.0 | 100.0 | 6.5 | 4.8 | 4.0 | 3.0 | 1.9 | 
CCC(CC)C(=O)OC1=C[C@@H]2N(C)CC[C@]2(c2ccc(OC)c(OC)c2)CC1 [Compound 426, (3aS,7aS)-3a-(3,4-dimethoxyphenyl)-1-methyl-2,3,3a,4,5,7a-hexahydro-1H-indol-6-yl 2-ethylbutanoate] |  |  |  |  |  | 100.0 | 70.2 | 33.2 | 9.5 | 0.9 | 0.1 | 100.0 | 87.1 | 80.3 | 79.2 | 73.6 | 66.4 | 
CCCC(CCC)C(=O)OC1=C[C@@H]2N(C)CC[C@]2(c2ccc(OC)c(OC)c2)CC1 [Compound 427, (3aS,7aS)-3a-(3,4-dimethoxyphenyl)-1-methyl-2,3,3a,4,5,7a-hexahydro-1H-indol-6-yl 2-propylpentanoate] |  |  |  |  |  | 100.0 | 93.6 | 73.4 | 43.9 | 16.0 | 2.3 | 100.0 | >99 | 96.6 | 96.9 | 95.5 | 91.2 | 
CCC(C)(C)C(=O)OC1=C[C@@H]2N(C)CC[C@]2(c2ccc(OC)c(OC)c2)CC1 [Compound 428, (3aS,7aS)-3a-(3,4-dimethoxyphenyl)-1-methyl-2,3,3a,4,5,7a-hexahydro-1H-indol-6-yl 2,2-dimethylbutanoate] |  |  |  |  |  | 100.0 | 90.3 | 69.9 | 41.7 | 18.1 | 3.9 | 100.0 | 82.9 | 74.5 | 69.1 | 56.8 | 46.0 | 
CCCC(C)(C)C(=O)OC1=C[C@@H]2N(C)CC[C@]2(c2ccc(OC)c(OC)c2)CC1 [Compound 429, (3aS,7aS)-3a-(3,4-dimethoxyphenyl)-1-methyl-2,3,3a,4,5,7a-hexahydro-1H-indol-6-yl 2,2-dimethylpentanoate] |  |  |  |  |  | 100.0 | 90.4 | 83.9 | 71.9 | 50.8 | 26.2 | 100.0 | >99 | 96.3 | 95.3 | 91.8 | 84.6 | 
CCC(C)(CC)C(=O)OC1=C[C@@H]2N(C)CC[C@]2(c2ccc(OC)c(OC)c2)CC1 [Compound 430, (3aS,7aS)-3a-(3,4-dimethoxyphenyl)-1-methyl-2,3,3a,4,5,7a-hexahydro-1H-indol-6-yl 2-ethyl-2-methylbutanoate] |  |  |  |  |  | 100.0 | 98.2 | 98.3 | 97.1 | 94.1 | 92.8 | 100.0 | >99 | >99 | >99 | >99 | 95.9 | 
COc1ccc([C@@]23CCC(OC(=O)CC(C)(C)C)=C[C@@H]2N(C)CC3)cc1OC [Compound 431, (3aS,7aS)-3a-(3,4-dimethoxyphenyl)-1-methyl-2,3,3a,4,5,7a-hexahydro-1H-indol-6-yl 3,3-dimethylbutanoate] |  |  |  |  |  | 100.0 | 74.5 | 45.7 | 16.5 | 2.3 | 0.2 | 100.0 | 82.1 | 69.0 | 62.8 | 52.6 | 37.4 | 
